In brackets after ≈: the same amount, converted by molar mass.

What all share (assay type): functional
Test [1] relates to Candida albicans. Nature of the test: Antifungal activity against Candida albicans assessed as inhibition of fungal growth incubated for 24 hrs by CLSI based two serial dilution assay.
In a further test the test system is Enterococcus faecalis. The experiment in a line: Antibacterial activity against Enterococcus faecalis assessed as bacterial growth inhibition incubated for 24 hrs by CLSI based two serial dilution assay.
Test [2] has as its system Escherichia coli. The experiment in a line: Antibacterial activity against Escherichia coli 25922 assessed as bacterial growth inhibition incubated for 24 hrs by CLSI based two serial dilution assay.
In test [3] the test system is Staphylococcus aureus. The experiment in a line: Antibacterial activity against Staphylococcus aureus assessed as bacterial growth inhibition incubated for 24 hrs by CLSI based two serial dilution assay.
In test [4] the test system is Staphylococcus aureus. Nature of the test: Antibacterial activity against Staphylococcus aureus 29213 assessed as bacterial growth inhibition incubated for 24 hrs by CLSI based two serial dilution assay.
The test system of test [5] is Pseudomonas aeruginosa. The experiment in a line: Antibacterial activity against Pseudomonas aeruginosa ATCC 27853 assessed as bacterial growth inhibition incubated for 24 hrs by CLSI based two serial dilution assay.
Test [6] concerns Candida albicans. Nature of the test: Antifungal activity against Candida albicans ATCC 90023 assessed as inhibition of fungal growth incubated for 24 hrs by CLSI based two serial dilution assay.
The subject of another test is Candida tropicalis. Nature of the test: Antifungal activity against Candida tropicalis assessed as inhibition of fungal growth incubated for 24 hrs by CLSI based two serial dilution assay.
The test system of test [7] is Staphylococcus aureus. The experiment in a line: Antibacterial activity against Staphylococcus aureus 25923 assessed as bacterial growth inhibition incubated for 24 hrs by CLSI based two serial dilution assay.
For test [8], the system named is Escherichia coli. The experiment in a line: Antibacterial activity against Escherichia coli assessed as bacterial growth inhibition incubated for 24 hrs by CLSI based two serial dilution assay.
In the next test the test system is Acinetobacter baumannii. Nature of the test: Antibacterial activity against Acinetobacter baumannii assessed as bacterial growth inhibition incubated for 24 hrs by CLSI based two serial dilution assay.
For another test, the system named is Candida parapsilosis. Nature of the test: Antifungal activity against Candida parapsilosis ATCC 22019 assessed as inhibition of fungal growth incubated for 24 hrs by CLSI based two serial dilution assay. The conditions noted are these: Lodderomyces parapsilosis.
Test [9] has as its system Staphylococcus aureus. The experiment in a line: Antibacterial activity against methicillin-resistant Staphylococcus aureus assessed as bacterial growth inhibition incubated for 24 hrs by CLSI based two serial dilution assay.
The next test has as its system Aspergillus fumigatus. Nature of the test: Antifungal activity against Aspergillus fumigatus assessed as inhibition of fungal growth incubated for 24 hrs by CLSI based two serial dilution assay.
For test [10], the system named is Pseudomonas aeruginosa. The experiment in a line: Antibacterial activity against Pseudomonas aeruginosa assessed as bacterial growth inhibition incubated for 24 hrs by CLSI based two serial dilution assay.
The next test relates to Klebsiella pneumoniae. The experiment in a line: Antibacterial activity against Klebsiella pneumoniae assessed as bacterial growth inhibition incubated for 24 hrs by CLSI based two serial dilution assay.

Regarding `CCCCCCCCCCN1C(=O)/C(=N\Nc2nccs2)c2ccccc21`, the MIC was 512 µM (≈ 197 µg/mL) in the test with Candida albicans [1]; 4 µM (≈ 1.54 µg/mL) in the test on Enterococcus faecalis; 64 µM (≈ 24.6 µg/mL) in the test with Escherichia coli [2]; 512 µM (≈ 197 µg/mL) in the test on Staphylococcus aureus [3]; 512 µM (≈ 197 µg/mL) with Staphylococcus aureus [4]; 512 µM (≈ 197 µg/mL) in the test on Pseudomonas aeruginosa [5]. Also, the MIC with Candida albicans [6] amounted to 256 µM (≈ 98.4 µg/mL); with Candida tropicalis, 64 µM (≈ 24.6 µg/mL); in the test with Staphylococcus aureus [7], 512 µM (≈ 197 µg/mL); in the test with Escherichia coli [8], 512 µM (≈ 197 µg/mL); with Acinetobacter baumannii, 512 µM (≈ 197 µg/mL); in the test on Candida parapsilosis it was 256 µM (≈ 98.4 µg/mL). The MIC in the test with Staphylococcus aureus [9] was determined as 512 µM (≈ 197 µg/mL); in the test on Aspergillus fumigatus it was 512 µM (≈ 197 µg/mL); in the test on Pseudomonas aeruginosa [10], 64 µM (≈ 24.6 µg/mL); in the test with Klebsiella pneumoniae it was 256 µM (≈ 98.4 µg/mL).
As to `CCCCN1C(=O)/C(=N\Nc2nccs2)c2cc(OC)ccc21`, the MIC in the test on Candida albicans [1] is 64 µM (≈ 21.1 µg/mL); in the test on Enterococcus faecalis, 4 µM (≈ 1.32 µg/mL); in the test with Escherichia coli [2], 4 µM (≈ 1.32 µg/mL); in the test on Staphylococcus aureus [3], 32 µM (≈ 10.6 µg/mL); with Staphylococcus aureus [4], 16 µM (≈ 5.29 µg/mL); with Pseudomonas aeruginosa [5] it was 32 µM (≈ 10.6 µg/mL). The MIC was 32 µM (≈ 10.6 µg/mL) in the test on Candida albicans [6]; 128 µM (≈ 42.3 µg/mL) in the test with Candida tropicalis; 16 µM (≈ 5.29 µg/mL) in the test with Staphylococcus aureus [7]; 16 µM (≈ 5.29 µg/mL) in the test with Escherichia coli [8]; 16 µM (≈ 5.29 µg/mL) with Acinetobacter baumannii; 16 µM (≈ 5.29 µg/mL) with Candida parapsilosis. Also, the MIC is 8 µM (≈ 2.64 µg/mL) in the test on Staphylococcus aureus [9], 32 µM (≈ 10.6 µg/mL) in the test with Aspergillus fumigatus, 4 µM (≈ 1.32 µg/mL) in the test on Pseudomonas aeruginosa [10] and 128 µM (≈ 42.3 µg/mL) in the test with Klebsiella pneumoniae.
`CCCCN1C(=O)/C(=N\Nc2nccs2)c2ccc(Br)cc21`: the MIC in the test with Candida albicans [1] came out at 0.5 µM (≈ 0.19 µg/mL); in the test on Enterococcus faecalis it was 4 µM (≈ 1.52 µg/mL); in the test with Escherichia coli [2], 16 µM (≈ 6.07 µg/mL); in the test on Staphylococcus aureus [3] it was 1 µM (≈ 0.379 µg/mL); in the test with Staphylococcus aureus [4], 4 µM (≈ 1.52 µg/mL); in the test with Pseudomonas aeruginosa [5], 0.5 µM (≈ 0.19 µg/mL). Further, the MIC in the test with Candida albicans [6] worked out at 1 µM (≈ 0.379 µg/mL); with Candida tropicalis, 1 µM (≈ 0.379 µg/mL); with Staphylococcus aureus [7], 0.5 µM (≈ 0.19 µg/mL); in the test on Escherichia coli [8], 0.5 µM (≈ 0.19 µg/mL); in the test on Acinetobacter baumannii, 0.5 µM (≈ 0.19 µg/mL); in the test on Candida parapsilosis it was 0.5 µM (≈ 0.19 µg/mL). Besides, the MIC in the test on Staphylococcus aureus [9] came to 1 µM (≈ 0.379 µg/mL); in the test on Aspergillus fumigatus it was 0.5 µM (≈ 0.19 µg/mL); in the test with Pseudomonas aeruginosa [10], 1 µM (≈ 0.379 µg/mL); in the test on Klebsiella pneumoniae, 0.5 µM (≈ 0.19 µg/mL).
Take `CCCCN1C(=O)/C(=N\Nc2nccs2)c2cc(Br)ccc21`: the minimum inhibitory concentration (MIC) in the test with Candida albicans [1] is 32 µM (≈ 12.1 µg/mL); in the test with Enterococcus faecalis, 32 µM (≈ 12.1 µg/mL); in the test with Escherichia coli [2], 16 µM (≈ 6.07 µg/mL); with Staphylococcus aureus [3], 64 µM (≈ 24.3 µg/mL); in the test with Staphylococcus aureus [4], 16 µM (≈ 6.07 µg/mL); with Pseudomonas aeruginosa [5] it was 256 µM (≈ 97.1 µg/mL). In addition, the MIC in the test on Candida albicans [6] turned out to be 64 µM (≈ 24.3 µg/mL); with Candida tropicalis, 64 µM (≈ 24.3 µg/mL); with Staphylococcus aureus [7] it was 32 µM (≈ 12.1 µg/mL); with Escherichia coli [8], 16 µM (≈ 6.07 µg/mL); in the test with Acinetobacter baumannii it was 16 µM (≈ 6.07 µg/mL); in the test with Candida parapsilosis it was 32 µM (≈ 12.1 µg/mL). In addition, the MIC with Staphylococcus aureus [9] worked out at 16 µM (≈ 6.07 µg/mL); in the test on Aspergillus fumigatus it was 16 µM (≈ 6.07 µg/mL); in the test on Pseudomonas aeruginosa [10], 8 µM (≈ 3.03 µg/mL); with Klebsiella pneumoniae it was 256 µM (≈ 97.1 µg/mL).
Turning to `CCN1C(=O)/C(=N\Nc2nccs2)c2ccccc21`, the MIC worked out at 64 µM (≈ 17.4 µg/mL) in the test on Candida albicans [1]; 32 µM (≈ 8.71 µg/mL) in the test with Enterococcus faecalis; 64 µM (≈ 17.4 µg/mL) in the test on Escherichia coli [2]; 64 µM (≈ 17.4 µg/mL) in the test with Staphylococcus aureus [3]; 16 µM (≈ 4.36 µg/mL) in the test with Staphylococcus aureus [4]; 512 µM (≈ 139 µg/mL) in the test on Pseudomonas aeruginosa [5]. Further, the MIC in the test on Candida albicans [6] is 128 µM (≈ 34.9 µg/mL); in the test on Candida tropicalis it was 64 µM (≈ 17.4 µg/mL); in the test on Staphylococcus aureus [7], 64 µM (≈ 17.4 µg/mL); in the test on Escherichia coli [8] it was 32 µM (≈ 8.71 µg/mL); with Acinetobacter baumannii, 512 µM (≈ 139 µg/mL); with Candida parapsilosis it was 64 µM (≈ 17.4 µg/mL). Besides, the minimum inhibitory concentration (MIC) was determined as 32 µM (≈ 8.71 µg/mL) with Staphylococcus aureus [9], 32 µM (≈ 8.71 µg/mL) in the test on Aspergillus fumigatus, 2 µM (≈ 0.545 µg/mL) with Pseudomonas aeruginosa [10] and 64 µM (≈ 17.4 µg/mL) in the test on Klebsiella pneumoniae.
For the compound `CCCCN1C(=O)/C(=N\Nc2nccs2)c2cccc(F)c21`, the MIC in the test with Candida albicans [1] came out at 32 µM (≈ 10.2 µg/mL); in the test on Enterococcus faecalis it was 2 µM (≈ 0.637 µg/mL); in the test on Escherichia coli [2], 1 µM (≈ 0.318 µg/mL); in the test with Staphylococcus aureus [3] it was 16 µM (≈ 5.09 µg/mL); in the test on Staphylococcus aureus [4] it was 16 µM (≈ 5.09 µg/mL); with Pseudomonas aeruginosa [5], 1 µM (≈ 0.318 µg/mL). Also, the MIC came to 4 µM (≈ 1.27 µg/mL) with Candida albicans [6]; 1 µM (≈ 0.318 µg/mL) in the test with Candida tropicalis; 1 µM (≈ 0.318 µg/mL) in the test on Staphylococcus aureus [7]; 4 µM (≈ 1.27 µg/mL) with Escherichia coli [8]; 0.5 µM (≈ 0.159 µg/mL) with Acinetobacter baumannii; 4 µM (≈ 1.27 µg/mL) in the test on Candida parapsilosis. Also, the minimal inhibitory concentration (MIC) came out at 4 µM (≈ 1.27 µg/mL) with Staphylococcus aureus [9], 256 µM (≈ 81.5 µg/mL) in the test with Aspergillus fumigatus, 1 µM (≈ 0.318 µg/mL) with Pseudomonas aeruginosa [10] and 1 µM (≈ 0.318 µg/mL) in the test on Klebsiella pneumoniae.

A word on the MIC: it is the lowest concentration found to suppress growth.

(Values after ChEMBL document CHEMBL5370535, “Thiazolyl hydrazineylidenyl indolones as unique potential multitargeting broad-spectrum antimicrobial agents” (Eur J Med Chem, 2023).)
